The text below walks through data of ChEMBL document CHEMBL1144081, “Sesquiterpene lactones from neurolaena oaxacana” (1999).

In brackets after ≈: the same amount, converted by molar mass.

The subject of experiment [1] is Giardia intestinalis. The experiment is described as follows: Antigiardial activity against Giardia intestinalis. Conditions: Giardia duodenalis. The format is functional.
The test system of experiment [2] is Entamoeba histolytica. The experiment can be described thus: […] activity against Entamoeba histolytica. The class given is functional.

For the molecule `Cc1ncc([N+](=O)[O-])n1CCO` [METRONIDAZOLE], in experiment [1], 1.17 µM (≈ 0.2 µg/mL) was the least that counted as inhibitory (MIC).
`CC[C@H]1CN2CCc3cc(OC)c(OC)cc3[C@@H]2C[C@@H]1C[C@H]1NCCc2cc(OC)c(OC)cc21` [EMETINE]: in experiment [2], the MIC – broadly, the smallest concentration in the dilution series that meets the test's criterion for growth inhibition – was 2.9 µM (≈ 1.39 µg/mL).
As for `C=C1C(=O)O[C@@H]2C[C@@H](C)/C=C\C(=O)[C@@](C)(O)[C@H](OC(C)=O)[C@@H](OC(=O)CC(C)C)[C@@H]12` [NEUROLENIN B], the MIC in experiment [2] came to 7.6 µM (≈ 3.21 µg/mL); in experiment [1] it was 3.8 µM (≈ 1.61 µg/mL).
